Laboratory results from patent US4772596A, “Dihydropyridine derivatives, their preparation and their use” (Sankyo Company Limited, priority 1986, dated 1988).

Tests used:
[1] = system: spontaneously hypertensive rats of the SHR strain; experiment: Antihypertensive activity in conscious spontaneously hypertensive rats (blood pressure and heart rate); conditions: po; for 12 Hour Area (integrated value of the area above the graph of blood pressure change against time): 12 hours after administration
Protocol: The test animals were spontaneously hypertensive rats of the SHR strain, each aged about 15 weeks. The antihypertensive activities of the test compounds were determined in these rats as follows.
Each animal was anaesthetized with sodium pentobarbital (50 mg/kg, intraperitoneally) and a polyethylene cannula was inserted into the abdominal aorta by the method of Weeks and Jones [J. R. Weeks and J. A. Jones, Proc. Soc. Exptl. […] The other end of the cannula left the animal's body at, and was fixed to, the neck. About 1 week after this surgery, when the animal had completely recovered from surgical stress, the free end of the aortic cannula was connected to a sphygmomanmeter to measure blood pressure and heart rate of the animal directly in the conscious, aparalytic and unrestrained state.
At this time, a test compound suspended in a 0.3% w/v aqueous carboxymethylcellulose solution was administered orally in the dose shown in the following Table 8.
Tmax : the time in hours after administration of the compound under test before the maximum change in blood pressure was recorded;
To 0.5 max : the time in hours after administration of the compound under test which is required for the blood pressure to return to one half of its maximum value;

[2] = system: isolated rat aorta; experiment: Calcium antagonism: contractile response of isolated rat aorta to calcium chloride; format: cell-based; conditions: test compound 5 nM
Protocol: An isolated rat aorta was suspended in a calcium-free and high potassium Krebs-Henseleit solution maintained at a temperature of 37° C. The contractile response of the aorta to calcium chloride in concentrations ranging from 10^-5 to 10^-2 M was recorded by means of an isometric transducer. The dose-response curve of the aorta was obtained before and after addition of a test compound at a concentration of 5 nM. Addition of the test compound shifted the dose-response curve to the right, the magnitude of the shift depending upon the potency of the Ca^++ -blocking activity.

[3] = SHR, compared with nifedipine and nicardipine

| SMILES | T0.5 max (time after administration for the blood pressure to return to one half of its maximum value) ([1]; 1 mg/kg, SHR) [h] | Tmax (time after administration before the maximum change in blood pressure) ([1]; 1 mg/kg, SHR) [h] | 12 Hour Area (integrated value of the area above the graph of blood pressure change against time) ([1]; 1 mg/kg, SHR) | 12 Hour Area (integrated value of the area above the graph of blood pressure change against time) ([1]; 3 mg/kg, SHR) | also measured |
| --- | --- | --- | --- | --- | --- |
| CC1=C(C(=O)OC(C)C)C(c2cccc([N+](=O)[O-])c2)C(C(=O)OC2CCN(C(c3ccccc3)c3ccccc3)C2)=C(N)N1 (stereo not drawn) [Compound 2-8, 3-(1-Benzhydryl-3-pyrrolidinyl) 5-isopropyl 2-amino-6-methyl-4-(3-nitrophenyl)-1,4-dihydropyridine-3,5-dicarboxylate] | 11.2 | 6.0 | -172 | – | – |
| CC1=C(C(=O)OC(C)C)C(c2cccc([N+](=O)[O-])c2)C(C(=O)OC2CN(C(c3ccccc3)c3ccccc3)C2)=C(N)N1 (stereo not drawn) [Compound 1-11, 3-(1-Benzhydryl-3-azetidinyl) 5-isopropyl 2-amino-6-methyl-4-(3-nitrophenyl)-1,4-dihydropyridine-3,5-dicarboxylate] | 10.4 | 6.0 | -184 | -334 | duration of activity (calcium antagonism) ([2]; isolated rat aorta): excellent duration of activity; rightwards shift of the calcium chloride dose-response curve (Ca++-blocking activity) ([2]; calcium-free high potassium Krebs-Henseleit solution, 37° C): comparable with that of nifedipine; Tmax (time after administration before the maximum change in blood pressure) ([1]; 3 mg/kg, SHR): 5.0 h; duration of the antihypertensive activity [1, 3]: much longer than that produced by nifedipine and nicardipine; time of onset of activity / speed of lowering blood pressure [1, 3]: lowered blood pressure much more slowly than did nifedipine or nicardipine; heart rate ([1]; rat, in vivo): (but not Compound 1-11) increased heart rate |
| CC1=C(C(=O)OC(C)C)C(c2cccc(Cl)c2Cl)C(C(=O)OC2CN(C(c3ccccc3)c3ccccc3)C2)=C(N)N1 (stereo not drawn) [Compound 1-59, 3-(1-Benzhydryl-3-azetidinyl) 5-isopropyl 2-amino-4-(2,3-dichlorophenyl)-6-methyl-1,4-dihydropyridine-3,5-dicarboxylate] | 12.0 | 6.0 | -203 | – | – |
| CC1=C(C(=O)OC(C)C)C(c2cccc([N+](=O)[O-])c2)C(C(=O)OC2CCCN(C(c3ccccc3)c3ccccc3)C2)=C(N)N1 (stereo not drawn) [Compound 3-8, 3-(1-Benzhydryl-3-piperidyl) 5-isopropyl 2-amino-6-methyl-4-(3-nitrophenyl)-1,4-dihydropyridine-3,5-dicarboxylate] | 11.4 | 7.0 | -141 | – | – |
| COC(=O)C1=C(C)NC(C)=C(C(=O)OC)C1c1ccccc1[N+](=O)[O-] [nifedipine, reference compound] | – | – | – | -237 | heart rate ([1]; SHR): increased heart rate |
| CC1=C(C(=O)OC(C)C)C(c2cccc([N+](=O)[O-])c2)C(C(=O)OC2CN(C(c3ccc(F)cc3)c3ccc(F)cc3)C2)=C(N)N1 (stereo not drawn) [Compound 1-68, 3-[1-(4,4'-Difluorobenzhydryl)-3-azetidinyl]5-isopropyl 2-amino-6-methyl-4-(3-nitrophenyl)-1,4-dihydropyridine-3,5-dicarboxylate] | 11.8 | 7.0 | -218 | – | – |
| COC(=O)C1=C(C)NC(C)=C(C(=O)OCCN(C)Cc2ccccc2)C1c1cccc([N+](=O)[O-])c1 (stereo not drawn) [nicardipine, reference compound] | – | – | – | -175 | T0.5 max (time after administration for the blood pressure to return to one half of its maximum value) ([1]; 3 mg/kg, SHR): 5.3 h; Tmax (time after administration before the maximum change in blood pressure) ([1]; 3 mg/kg, SHR): 0.5 h |
